Measurements taken from paper PMC11219945, “Assessing genotoxic effects of chemotherapy agents by a robust in vitro assay based on mass spectrometric quantification of γ-H2AX in HepG2 cells” (Frontiers in Pharmacology, 2024).
Counter-ions that a name gives are not always drawn.

Columns and labels:
[1] = combination of in vitro mouse lymphoma, chromosomal aberration, and micronucleus tests; cited from earlier work
[2] = tested on: γ-H2AX in HepG2 cells; assay: γ-H2AX MS assay, dose-effect relationship in HepG2 cells
Method: Human hepatoblastoma cells (HepG2) were cultivated in DMEM medium under standard conditions (37°C in a 5% CO2 atmosphere). The culturing medium was added with 10% FBS, 100 U/mL penicillin and 100 μg/mL streptomycin.
In accordance to our previous study, cells were exposed to the chemotherapeutic agent by adding a proper volume of chemotherapeutic agent stock solution to the fresh medium without serum. Controls were treated with DMSO (0.1%) in medium. Independent biological experiments with three technical replicates were conducted.
The cells were then treated with different chemotherapy agents in serum-free medium. For a dose-effect relationship experiment, cells were exposed to each agent at either of three concentrations with a 10-fold increase for 24 h. For the time-effect relationship experiment of nine tested chemotherapy agents, cells were exposed to selected chemotherapy agents at 0.5, 1, 2, 4, 8, 12, and 24 h, with the concentration of 100 μM. Independent biological experiments with three technical replicates were performed.
(§1) The quantification of γ-H2AX was carried out according to the previous report ([Qu et al., 2021]). In short, the cell clumps were collected after a certain period of cell culture and histones were obtained by acid extraction. After nuclear isolation, histone extraction, trypsin digestion in the solution, and desalting, the peptide sample from the carboxy terminus of H2AX was analyzed. LC–MS/MS analysis was conducted using a QTRAP 5500 (AB Sciex, Framingham, United States) with an ACQUITY UPLC system (Waters Co., Manchester, United Kingdom). Chromatographic separation was carried out with an ACQUITY UPLC BEH C18 column (100 mm × 2.1 mm, 1.7 μm). The column temperature was maintained at 40°C. A 10 μL sample aliquot was injected for analysis. Mobile phases A and B were 0.1% FA in distilled H2O and acetonitrile, respectively. […] The eluent composition was maintained for 2 min, after which the system returned to 1% B and was re-equilibrated for 2 min. The eluates in the first 1 min were switched to waste to prevent contaminating the ion source. The electrospray ionization source was operated in positive mode using nitrogen as the nebulizing gas. All experiments were performed independently in at least triplicate.
To this end, we firstly examined the cytotoxicity of 34 chemotherapy agents, all of which were already well classified in terms of diverse characteristics. These tested chemotherapy agents were serially diluted for exposure to check the effects on cell viability.

[3] = tested on: γ-H2AX in HepG2 cells; assay: γ-H2AX time-effect relationship / DNA repair kinetics (k, t50) in HepG2 cells; assay type: cell-based, Human; set-up: k (speed of γ-H2AX descending): unit not given here; details: 100 μM, 0.5–8 h time-dependent kinetics
Method: The cells were then treated with different chemotherapy agents in serum-free medium. […] Independent biological experiments with three technical replicates were performed.
as §1, with “In” for “The quantification of γ-H2AX was carried out according to the previous report ([Qu et al., 2021]). In”
Here, we estimated k and t50 after exposure to nine representative chemotherapy agents based on the 0.5–8 h γ-H2AX time-dependent kinetics (Figure 5) and then obtained these parameters to describe each agent DSB repair capacity using the functions optim and optimize in R language.

| SMILES | In vitro assays (genotoxicity) [1] | maximum γ-H2AX value within the selected concentration range ([2]; human, 24 h) | other results |
| --- | --- | --- | --- |
| Nc1nc2nc[nH]c2c(=S)[nH]1 [Thioguanine] | + | 6.6 |  |
| CC[C@@]1(O)C(=O)OCc2c1cc1n(c2=O)Cc2cc3c(CN(C)C)c(O)ccc3nc2-1 [Topotecan] | + | 18.4 | k (speed of γ-H2AX descending) [3]: 0.132; t50 (time required for γ-H2AX to drop to half of the maximum value) [3]: 3.545 h |
| COc1cccc2c1C(=O)c1c(O)c3c(c(O)c1C2=O)C[C@@](O)(C(=O)CO)C[C@@H]3O[C@H]1C[C@H](N)[C@@H](O)[C@H](C)O1 [Epirubicin hydrochloride] | + | 18 | γ-H2AX MEC/MS (minimum effective concentration) ([2]; human, 24 h): 0.01 µM |
| CC(=O)O[C@H]1C(=O)[C@@]2(C)[C@H]([C@H](OC(=O)c3ccccc3)[C@]3(O)C[C@H](OC(=O)[C@H](O)[C@@H](NC(=O)c4ccccc4)c4ccccc4)C(C)=C1C3(C)C)[C@]1(OC(C)=O)CO[C@@H]1C[C@@H]2O [Paclitaxel] |  |  | Variation of γ-H2AX ([2]; human, 24 h): no variations of γ-H2AX |
| CCC1(c2ccc(N)cc2)CCC(=O)NC1=O (stereo not drawn) [Aminoglutethimide] | − | 2.9 |  |
| CCCCCCNC(=O)n1cc(F)c(=O)[nH]c1=O [Carmofur] | + | 6.3 |  |
| O=c1[nH]c(=O)n(C2CCCO2)cc1F (stereo not drawn) [Tegafur] | + | 7.2 | k (speed of γ-H2AX descending) [3]: 3.015; t50 (time required for γ-H2AX to drop to half of the maximum value) [3]: 1.442 h; value of γ-H2AX ([2]; human, 100 μM): 7.2 |
| COc1cc([C@@H]2c3cc4c(cc3[C@@H](O[C@@H]3O[C@@H]5CO[C@@H](c6cccs6)O[C@H]5[C@H](O)[C@H]3O)[C@H]3COC(=O)[C@H]23)OCO4)cc(OC)c1O [Teniposide] | + | 13.2 |  |
| COc1cccc2c1C(=O)c1c(O)c3c(c(O)c1C2=O)C[C@@](O)(C(=O)CO)C[C@@H]3O[C@H]1C[C@H](N)[C@H](O[C@@H]2CCCCO2)[C@H](C)O1 [Pirarubicin] | + |  | maximum γ-H2AX value within the selected concentration range ([2]; HepG2 cells, 24 h): 22; γ-H2AX MEC/MS (minimum effective concentration) ([2]; HepG2 cells, 24 h exposure): ↑(0.01) µM; γ-H2AX MEC/MS (minimum effective concentration) ([2]; HepG2 cells, 24 h exposure, listed as pirarubicin): 0.01 µM |
| CC/C(=C(\c1ccccc1)c1ccc(OCCN(C)C)cc1)c1ccccc1 [Tamoxifen] | − | 3.1 |  |
| NC(=O)NO [Hydroxyurea] | + |  | MEC in γ-H2AX MS assay [2]: 1 mM |
| CC[C@@]1(O)C(=O)OCc2c1cc1n(c2=O)Cc2c-1nc1cc(F)c(C)c3c1c2[C@@H](N)CC3 [Exatecan] | + | 19.2 | k (speed of γ-H2AX descending) [3]: 0.114; t50 (time required for γ-H2AX to drop to half of the maximum value) [3]: 3.925 h |
| O=C1[O][Pt]2([NH][C@@H]3CCCC[C@H]3[NH]2)[O]C1=O [Oxaliplatin] | + |  | maximum γ-H2AX value within the selected concentration range ([2]; HepG2 cells, 24 h): 7.51; γ-H2AX MEC/MS (minimum effective concentration) ([2]; HepG2 cells, 24 h exposure): ↑(100) µM; γ-H2AX MEC/MS (minimum effective concentration) ([2]; HepG2 cells, 24 h exposure, listed as oxaliplatin): 100 µM |
| COc1cc([C@@H]2c3cc4c(cc3[C@@H](O[C@@H]3O[C@@H]5CO[C@@H](C)O[C@H]5[C@H](O)[C@H]3O)[C@H]3COC(=O)[C@H]23)OCO4)cc(OC)c1O [Etoposide] | + |  |  |
| CC(C)(C#N)c1cc(Cn2cncn2)cc(C(C)(C)C#N)c1 [Anastrozole] | − |  |  |
